Laboratory results as given in US20240268372A1, “Methods and Compositions for Extending Organ and Tissue Preservation” (The General Hospital Corporation, priority 2021, published 2024).

How the values were obtained:
[1] = test system: discarded DCD human livers; assay: Normothermic machine perfusion (NMP) of discarded human livers with emricasan in the perfusate: hepatocellular and cholangiocellular function
Description: Human liver perfusions: Sixteen human livers from donation after circulatory death, with consent for research, were included in this study after being turned down by all transplant centers in the respective region of procurement. Human livers were procured in standard fashion through two Organ Procurement Organizations (OPO): New England Donor Services (Waltham, MA, USA) and LiveOnNewYork (New York, NY). In addition, one liver was obtained through the International Institute for the Advancement of Medicine (IIAM, Edison, NJ), which originated from the Gift of Life Donor Program (Philadelphia, PA). Informed consent was obtained from donors by the OPO. The Massachusetts General Hospital and Lifespan Institutional Review Boards, as well as the two OPOs and IIAM, approved this study (No. 2011P001496). No organs were procured from prisoners and no vulnerable populations were included in this study.
Procurement techniques based on donation after circulatory death followed standard methods. Donor livers were flushed in situ with University of Wisconsin solution. Total warm ischemic time was defined as the period from extubation to cold flush. Functional WIT was defined as the period from asystole to cold flush. Cold ischemic time was defined from cold flush to initiation of machine perfusion. All livers were transported via ground courier. After arrival to the laboratory under static cold storage, livers underwent standard back bench preparation for machine perfusion.
Grafts were perfused on the Liver Assist device (Organ Assist, Groningen, Netherlands) using a previously described protocol (see, e.g., ref. 14). Briefly, perfusate composition consisted of O+ packed red blood cells, human albumin, Lactated Ringer's solution, and heparin. […] Perfusate, bile, and tissue biopsies were collected and analyzed at multiple time points. Grafts were assessed for adequate hepatocellular and cholangiocellular function. […] Cholangiocellular (biliary) viability metrics were measured according to van Leeuwen (see, e.g., ref. 15). […]

[2] = test system: discarded DCD human livers; assay: Perfusate plasma apoptosis biomarkers, cell-free DNA and cytokines during liver NMP (ELISA kits)
Protocol: With respect to the experimental group (emricasan, EM), 5 consecutive human livers turned down for transplant were enrolled. Emricasan, also known as IDN-6556 (MedChemExpress, Monmouth Junction, NJ), dissolved in DMSO was added to the circulating perfusate prior to initiation of liver perfusion at a dose of 5 mg/kg liver weight (1 mL total volume, 0.05% v/v total perfusate). Vehicle control (1 mL DMSO) was previously incorporated in the control liver perfusions (FIG. 6).
Protein Analysis: Perfusate collected at the indicated time points was centrifuged at 5000 g and the plasma collected and stored at −80° C. for later analysis. Enzyme-linked immunosorbent assays (ELISA) were performed for various proteins according to manufacturers' guidelines.

[3] = test system: discarded DCD human livers; assay: Western immunoblot and LC3B immunohistochemistry of liver biopsies during NMP (UPR, autophagy, necroptosis)
Protocol: Sequential wedge biopsies from the right lobe of each liver were performed at indicated intervals, flash frozen in liquid nitrogen, and stored at −80° C. Tissue samples (20 mg) were homogenized and Western immunoblots performed as previously described (see, e.g., ref. 16). A full list of antibodies used is provided below in Table 3.
To compare target protein expression, densitometry quantification was conducted. Both proteins varied across samples and the changes were not consistent between the 2 proteins, with the variation representing the biologic variability in the human liver.
In brief, immunohistochemistry was performed using antibodies directed toward LC3B (Product No. NB100-2220, Novus Biologicals, Littleton, CO, USA). Paraffin sections (6 μm) were deparaffinized with xylene and rehydrated with graded ethanol. Antigen retrieval was performed by sub-boiling in 1×-diluted Dako Target Retrieval Solution for 10 min (DakoCytomation, Inc., Carpinteria, CA). Slides were then quenched in 3% H2O2 and blocked in 2.5% Normal Horse Serum (Vector Labs, Burlingame, CA) before overnight incubation in primary antibody (1:200 dilution) at 4° C. Slides were incubated with a horseradish-peroxidase conjugated secondary rabbit antibody (Vector Laboratories) for 1 hr prior to staining with DAB (Vector Laboratories). Slides were counterstained with hematoxylin. Omission of the primary antibody served as a negative control.

[4] = test system: discarded DCD human livers; assay: RNA sequencing of liver biopsies during NMP (differential expression, IPA, GO)
Protocol: RNA purification and sequencing: Core needle biopsies taken immediately prior to perfusion and after 3 and 6 hours of perfusion were used for transcriptome sequencing. […] The differential gene expression threshold for significance was set to a Benjamini-Hochberg false discovery rate (FDR)<0.05.
In brief, tissues samples from livers taken immediately prior to perfusion and after 3 and 6 hours of perfusion were used for transcriptome sequencing. Core needle biopsies from the right liver lobe were collected in RNAlater solution (Sigma-Millipore, Waltham, MA, USA) and stored overnight at 4° C. Tissue samples were then removed from solution and stored at −80° C. Total RNA was isolated using the RNeasy Mini Kit (Qiagen, Germantown, MD, USA) according to manufacturer guidelines. 500 ng of each sample was sequenced on an Illumina HiSeq 4000 using 9 PCR cycles by GENEWIZ (South Plainfield, NJ, USA). Raw RNA-Seq data files were transferred to the Brown University computing cluster via sFTP and aligned to the human genome build 38 using STAR 2.7.3a (see, e.g., ref. 25). While sequencing was performed in two batches, the alignment was performed on all samples simultaneously using the same settings.
In brief, raw read counts were normalized using the Trimmed Mean of M method following removal of low-count genes (fewer than 10 reads in the smallest library). Differential gene expression analysis was conducted in R (see, e.g., ref. 27) using edgeR (see, e.g., ref. 28). The significance cutoff for differential gene expression was set to a Benjamini-Hochberg false-discovery rate (FDR or q-value)<0.05. Canonical pathway and upstream regulator enrichment analysis was generated through Ingenuity Pathway Analysis (IPA, Qiagen) (see, e.g., ref. 29). […]
Gene ontology (GO) enrichment analysis was performed using the R package GOseq (see, e.g., ref. 31). […] The genes with the highest amount of variance explained by principal component 1, 2, or 3 cumulatively totaling to 10% of the total variance explained by the specified PC were further analyzed.

[5] = test system: discarded DCD human livers; assay: H&E histology of liver biopsies during NMP; conditions: EM, IHF and AHF livers
Protocol: Histology and immunohistochemistry: Core needle biopsies taken from the right liver lobe at indicated intervals were fixed in formalin and embedded in paraffin. Hematoxylin and eosin (H&E) stains were performed on all biopsies to assess the degree of necrosis, inflammatory cell infiltrate, and reperfusion injury using a validated scoring system (see, e.g., ref. 17). Immunohistochemistry for LC3 was performed as previously described (see, e.g., ref. 3).

rodent LT models = conditions: drug given at the time of liver procurement; cited from earlier work
LT recipients = conditions: emricasan in preservation flush solution vs placebo group; cited from earlier work
[6] = clinical trials for liver transplant and NASH; cited from earlier work

C[C@H](NC(=O)C(=O)Nc1ccccc1C(C)(C)C)C(=O)N[C@@H](CC(=O)O)C(=O)COc1c(F)c(F)cc(F)c1F [emricasan]
number of emricasan-treated livers demonstrating adequate hepatocellular function ([1]; 5 livers treated, 5 mg/kg liver weight in perfusate, NMP): 4 | IRI in cholangiocytes / cholangiocellular function ([1]; end-ischemic NMP of DCD livers): did not appear to improve IRI in cholangiocytes | ischemia-reperfusion injury in hepatocytes ([1]; treatment during NMP after cold and warm ischemia): mitigated | circulating cell-free DNA (DAMP) ([2]; NMP, compared to control groups): significantly reduced | perfusate caspase-3/7 enzyme activity ([2]; NMP, vs control groups): significantly lower | perfusate level of cleaved cytokeratin 18 ([2]; NMP, vs control groups): significantly lower | evidence of apoptosis (circulating cleaved cytokeratin 18 and caspase-3/7 activity) ([2]; after both 3 and 6 hours of NMP): significantly decreased | cell-free DNA in perfusate ([2]; at 1 and 6 hours of NMP): significantly lower | circulating interleukin-1β (IL-1β) ([2]; compared only to IHF livers): lower | circulating tumor necrosis factor-α (TNFα) ([2]; compared only to IHF livers): lower | perfusate interferon-γ (IFNG) ([2]; compared to AHF and IHF groups): significantly lower | perfusate interleukin-6 (IL-6) ([2]; compared to AHF and IHF groups): significantly lower | perfusate interleukin-8 (IL-8) ([2]; compared to AHF and IHF groups): significantly lower | shift of LC3B to granule staining pattern (immunohistochemistry) ([3]; 3 and 6 hr of NMP): not observed | induction of necroptosis ([3]; NMP with emricasan): did not lead to induction of necroptosis | Phospho-MLKL ([3]; before and during perfusion): below the limit of detection | enrichment of IRI canonical pathways (innate immunity, sinusoidal endothelial cell activation), IPA ([4]; 3 and 6 h vs pre-perfusion): minimal enrichment | differentially expressed genes after 3 and 6 hours of NMP vs pre-perfusion ([4]; compared to both control groups): markedly smaller set of DEGs | upregulation of pro-inflammatory and pro-death genes ([4]; compared to controls (viable and nonviable livers)): decreased upregulation | inflammatory infiltrate or necrosis (H&E histology) [5]: no significant differences | survival in rodent LT models (rodent LT models): improved | AST and ALT levels in LT recipients (LT recipients): significantly lower | safety and tolerance profile [6]: excellent
